In publication PMC2000878, “Module structure of interphotoreceptor retinoid-binding protein (IRBP) may provide bases for its complex role in the visual cycle – structure/function study of Xenopus IRBP” (BMC Biochemistry, 2007):
Like-named read-outs stand apart in the source and are kept apart here.

Key:
Xenopus IRBP Module 2 = molecular target: T1, Xenopus IRBP Module 2 (Xenopus laevis, UniProt Q7SZI7); parameters: method as in Loew et al. Exp Eye Res. 2001, 73:257–264; conditions: ref Loew et al. Exp Eye Res. 2001, 73:257–264, cited from earlier work
T1 construct: cDNAs corresponding to the full-length IRBP, module 1, and module 2 were expressed in pThioHis; modules 3 and 4 were expressed in pTrxFus; made in house; host or cells: E. coli Top10 (pThioHis)
T1 sequence (Q7SZI7 319-617 limits assumed): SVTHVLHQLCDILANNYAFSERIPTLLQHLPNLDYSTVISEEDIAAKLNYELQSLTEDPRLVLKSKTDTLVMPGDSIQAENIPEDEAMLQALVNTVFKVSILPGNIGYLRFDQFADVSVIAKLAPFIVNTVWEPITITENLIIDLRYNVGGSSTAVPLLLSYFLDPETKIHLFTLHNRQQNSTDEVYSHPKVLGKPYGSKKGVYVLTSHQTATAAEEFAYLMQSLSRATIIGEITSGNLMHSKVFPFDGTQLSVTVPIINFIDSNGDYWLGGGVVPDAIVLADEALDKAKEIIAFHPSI

Xenopus IRBP Module 1 = Xenopus IRBP Module 1 (Xenopus laevis, UniProt Q7SZI7); test: Fluorometric titration (enhancement, quenching); format: binding; parameters: cDNAs corresponding to the full-length IRBP, module 1, and module 2 were expressed in pThioHis; modules 3 and 4 were expressed in pTrxFus; made in house; host or cells: E. coli Top10 (pThioHis)
Chain of Xenopus IRBP Module 1 (Q7SZI7 23-315): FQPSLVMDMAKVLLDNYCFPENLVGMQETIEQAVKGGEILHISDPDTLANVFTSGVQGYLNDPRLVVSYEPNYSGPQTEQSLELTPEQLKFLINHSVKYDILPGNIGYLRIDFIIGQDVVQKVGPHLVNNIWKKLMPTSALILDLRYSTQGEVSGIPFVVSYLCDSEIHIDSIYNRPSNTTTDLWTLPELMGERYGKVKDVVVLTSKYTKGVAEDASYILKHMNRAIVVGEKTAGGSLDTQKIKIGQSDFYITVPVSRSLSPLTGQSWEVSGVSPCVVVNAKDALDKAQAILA
Source text: Enhancement of retinol fluorescence and quenching of the intrinsic protein fluorescence were used to monitor binding of all-trans retinol to the recombinant IRBPs. We previously derived an equation that is generally useful for describing such quantum yield changes that are consequent upon ligand binding. This equation has been previously applied to the analysis of binding by monitoring the enhancement of retinol fluorescence. In this case, where excitation is at 330 nm and emission is monitored at 480, the fluorescence enhancement (Fenh) depends on the total retinol concentration (Rt), the dissociation constant (Kd ^all-trans), the number of retinol-binding sites per protein molecule (N) and the total protein concentration (Pt).
Assuming that there is a single type of noninteracting site on the protein, (Fenh) is expected to be linearly related to the concentration of bound retinol molecules. Fenh is given by the relation
Fenh=C1+C2[Rtall−trans−(Rtall−trans+NPt+Kdall−trans)^2−4NPtRtall−trans] MathType@MTEF@5@5@+=feaafiart1ev1aaatCvAUfKttLearuWrP9MDH5MBPbIqV92AaeXatLxBI9gBaebbnrfifHhDYfgasaacH8akY=wiFfYdH8Gipec8Eeeu0xXdbba9frFj0=OqFfea0dXdd9vqai=hGuQ8kuc9pgc9s8qqaq=dirpe0xb9q8qiLsFr0=vr0=vr0dc8meaabaqaciaacaGaaeqabaqabeGadaaakeaacqWGgbGrdaWgaaWcbaGaemyzauMaemOBa4MaemiAaGgabeaakiabg2da9iabdoeadnaaBaaaleaacqaIXaqmaeqaaOGaey4kaSIaem4qam0aaSbaaSqaaiabikdaYaqabaGcdaWadaqaaiabdkfasnaaDaaaleaacqWG0baDaeaacqWGHbqycqWGSbaBcqWGSbaBcqGHsislcqWG0baDcqWGYbGCcqWGHbqycqWGUbGBcqWGZbWCaaGccqGHsisldaGcaaqaamaabmaabaGaemOuai1aa0baaSqaaiabdsha0bqaaiabdggaHjabdYgaSjabdYgaSjabgkHiTiabdsha0jabdkhaYjabdggaHjabd6gaUjabdohaZbaakiabgUcaRiabd6eaojabdcfaqnaaBaaaleaacqWG0baDaeqaaOGaey4kaSIaem4saS0aa0baaSqaaiabdsgaKbqaaiabdggaHjabdYgaSjabdYgaSjabgkHiTiabdsha0jabdkhaYjabdggaHjabd6gaUjabdohaZbaaaOGaayjkaiaawMcaamaaCaaaleqabaGaeGOmaidaaOGaeyOeI0IaeGinaqJaemOta4Kaemiuaa1aaSbaaSqaaiabdsha0bqabaGccqWGsbGudaqhaaWcbaGaemiDaqhabaGaemyyaeMaemiBaWMaemiBaWMaeyOeI0IaemiDaqNaemOCaiNaemyyaeMaemOBa4Maem4CamhaaaqabaaakiaawUfacaGLDbaaaaa@8490@
The equation was fit to the data by nonlinear least-squares analysis. To follow the quenching of the protein's intrinsic fluorescence the excitation and emission wavelengths were set to 280 nm and 340 nm, respectively, while the protein was titrated with all-trans retinol. For the quenching studies the inner filter effect was accounted for by graphical correction as previously described. Fluorescence measurements were made using an SLM 8000TM C photon counting spectrofluorometer corrected for wavelength dependence of source energy and detector response.

[1] = all-trans retinol fluorescence enhancement, ex 330 nm, em 480 nm
[2] = all-trans retinol fluorescence enhancement, ex 330 nm, em 480 nm, read-out: Kd, Enhancement
[3] = quenching by all-trans retinol, ex 280 nm, em 340 nm, read-out: Kd, Quenching

Binding sites (N), Enhancement (Xenopus IRBP Module 1; [1]): 0.83 ± 0.15
Kd (Xenopus IRBP Module 1; [2]): 440 ± 130 nM
Kd (Xenopus IRBP Module 1; [3]): 350 ± 80 nM
SMILES: CC1=C(/C=C/C(C)=C/C=C/C(C)=C/CO)C(C)(C)CCC1 [all-trans retinol]
Binding sites (N), Enhancement (Xenopus IRBP Module 2; [1]): 1.57 ± 0.04
Kd (Xenopus IRBP Module 2; [2]): 84 ± 22 nM
Binding sites (N), Quenching (Xenopus IRBP Module 2; quenching by all-trans retinol, ex 280 nm, em 340 nm): 1.31 ± 0.06
Kd (Xenopus IRBP Module 2; [3]): 140 ± 40 nM
